Experimental data reported in patent US5686486A, “4-hydroxy-benzopyran-2-ones and 4-hydroxy-cycloalkyl[b]pyran-2-ones useful to treat retroviral infections” (priority 1995, dated 1997).
“And” between values parts separate entries of the source, which are not always exact repeats. Equal values may be shown once.

Legend:
HIV-1 protease [1] = molecular target: T1, HIV-1 protease (Human immunodeficiency virus type 1 group M subtype B, UniProt P04585); assay: biochemical; details: for inhibition at 0.123 µM: read-out: HIV-1 Protease % Inhib, dose 0.123 uM; for inhibition at 0.37 µM: read-out: HIV-1 Protease % Inhib, dose 0.370 uM; for inhibition at 1.1 µM: read-out: HIV-1 Protease % Inhib, dose 1.100 uM; for inhibition at 3.3 µM: read-out: HIV-1 Protease % Inhib, dose 3.300 uM; for inhibition at 10 µM: read-out: HIV-1 Protease % Inhib, dose 10.000 uM; for inhibition at 30 µM: read-out: HIV-1 Protease % Inhib, dose 30.000 uM
How it was run: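 Biotinylated, FITC-labeled peptide substrate (20 μl of 0.2 μM) incubated with HIV-1 protease (10 μl of 0.1 μM) and compound in 0.1 M sodium acetate pH 5.5, 1.0 M NaCl, 0.05% NP-40, 1 h, room temperature, dark. Streptavidin beads then capture uncleaved substrate; filtered labeled product read by fluorescence, giving percent inhibition.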

HIV-1 protease [2] = molecular target: T1, HIV-1 protease; assay: biochemical; details: read-out: HIV-1 FITC KI
How it was run: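 Ki from two-fold serial inhibitor dilutions (24–48 concentrations) with 40 nM HIV-1 protease stock and 200 μM substrate stock, 90 min at room temperature; stopped with avidin beads. Reference inhibitor run in parallel; Ki by nonlinear least-squares fit.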

SMILES	inhibition at 0.123 µM (HIV-1 protease [1]) [%]	inhibition at 0.37 µM (HIV-1 protease [1]) [%]	inhibition at 1.1 µM (HIV-1 protease [1]) [%]	inhibition at 3.3 µM (HIV-1 protease [1]) [%]	inhibition at 10 µM (HIV-1 protease [1]) [%]	inhibition at 30 µM (HIV-1 protease [1]) [%]	Ki (HIV-1 protease [2])	HIV-1 Protease % Inhib (HIV-1 protease [1]; dose 0.123 uM) [%]	HIV-1 Protease % Inhib (HIV-1 protease [1]; dose 0.370 uM) [%]	HIV-1 Protease % Inhib (HIV-1 protease [1]; dose 1.100 uM) [%]	HIV-1 Protease % Inhib (HIV-1 protease [1]; dose 3.300 uM)	HIV-1 Protease % Inhib (HIV-1 protease [1]; dose 10.000 uM)	HIV-1 Protease % Inhib (HIV-1 protease [1]; dose 30.000 uM) [%]
O=c1oc2c(c(O)c1C(c1cccc(NS(=O)(=O)c3cccc(N(CCO)CCO)c3)c1)C1CC1)CCCCCC2 (stereo not shown) [Example 355 (Second Title Compound), N-[3-[Cyclopropyl(5,6,7,8,9,10-hexahydro-4-hydroxy-2-oxo-2H-cycloocta[b]pyran-3-yl)methyl]phenyl]-3-[(bis-(2-ethanol))amino]-benzenesulfonamide]	112	111	107	110	110	108	1.06 nM						
O=c1oc2c(c(O)c1C(c1cccc(NS(=O)(=O)c3cccc(CO)c3)c1)C1CC1)CCCCCC2 (stereo not shown) [Example 356, N-[3-[Cyclopropyl(5,6,7,8,9,10-hexahydro-4-hydroxy-2-oxo-2H-cycloocta[b]pyran-3-yl)methyl]phenyl]-3-[methanol]-benzenesulfonamide]	97.7	97.2	97.9	101	102	100	1.32 nM						
O=c1oc2c(c(O)c1C(c1cccc(NS(=O)(=O)c3cccc(N4CCCS4(=O)=O)c3)c1)C1CC1)CCCCCC2 (stereo not shown) [Example 357, N-[3-[Cyclopropyl[3-(2-isothiazolidinyl)phenyl]methyl-(5,6,7,8,9,10-hexahydro4-hydroxy-S,S'-dioxide)methyl]phenyl]-3-[(phenylsulfonyl)amino]4-2H-cycloocta[b]pyran2-one]	104	97.2	101	98.3	96.8	89.6	0.62 nM						
CS(=O)(=O)Nc1cccc(C(c2c(O)c3c(oc2=O)CCCCC3)C2CC2)c1 (stereo not shown) [Example 364, N-[3-[Cyclopropyl(2,5,6,7,8,9-hexahydro-4-hydroxy-2-oxocyclohepta[b]pyran-3-yl)methyl]phenyl]-methanesulfonamide]		17.2	53.5	78.7	100	90.2	118 nM						
NC(=O)c1ccc(S(=O)(=O)Nc2cccc(C(c3c(O)c4c(oc3=O)CCCCCC4)C3CC3)c2)cc1 (stereo not shown) [Example 365A, 4-[[[3-[Cyclopropyl(5,6,7,8,9,10-hexahydro-4-hydroxy-2-oxo-2H-cycloocta[b]pyran-3-yl)methyl]phenyl]amino]sulfonyl]-benzamide]	83.8	106	115	116	117	116	1.86 nM						
I.O=c1oc2c(c(O)c1C(c1cccc(NS(=O)(=O)CCCN3CCOCC3)c1)C1CC1)CCCCCC2 (stereo not shown) [Example 365B (Third Title Compound), N-[3-[Cyclopropyl(5,6,7,8,9,10-hexahydro-4-hydroxy-2-oxo-2H-cycloocta[b]pyran-3-yl)methyl]phenyl]-4-morpholinepropanesulfonamide hydrogen iodide salt]							14.3 nM	29.06	56.47	93.46	90.63%	90.94%	85.31
O=c1oc2c(c(O)c1C(c1cccc(NS(=O)(=O)CCCI)c1)C1CC1)CCCCCC2 (stereo not shown) [Example 365C, 3-Iodo-N-[3-[cyclopropyl(5,6,7,8,9,10-hexahydro-4-hydroxy-2-oxo-2H-cycloocta[b]pyran-3-yl)methyl]phenyl]-1-propanesulfonamide]	63	93.6	102	71.5	87.5	83.5	16.6 nM						
CCCC(c1ccccc1)c1c(O)c2c(oc1=O)CCCCCC2 (stereo not shown) [Example 369, 5,6,7,8,9,10-Hexahydro-4-hydroxy-3-(1-phenylbutyl)-2H-cycloocta[b]pyran-2-one]	54.9	83.5	96	97.1	111	93.9	28.5 nM						
CC(C)C(c1cccc(N)c1)c1c(O)c2c(oc1=O)CCCCCC2 (stereo not shown) [Example 371, 3-[1-(3-Aminophenyl)-2-methylpropyl]-5,6,7,8,9,10-hexahydro-4-hydroxy-2H-cycloocta[b]pyran-2-one]	86.8	109	110	113	108	110	7.35 nM						
CC(C)C(c1cccc(NS(=O)(=O)c2ccc(Cl)cc2)c1)c1c(O)c2c(oc1=O)CCCCCC2 (stereo not shown) [Example 373, 4-Chloro-N-[3-[1-(6,7,8,9,10-hexahydro-4-hydroxy-2-oxo-2H-cycloocta[b]pyran-3-yl)-2-methylpropyl]phenyl]-benzenesulfonamide]	31.8	68.9	87	97.1	102	105	18.3 nM						
CC(C)C(c1cccc(NS(=O)(=O)c2cn(C)cn2)c1)c1c(O)c2c(oc1=O)CCCCCC2 (stereo not shown) [Example 374, N-[3-[1-(5,6,7,8,9,10-Hexahydro-4-hydroxy-2-oxo-2H-cycloocta[b]pyran-3-yl)-2-methylpropyl]phenyl]-1-methyl-1H-imidazole4-sulfonamide]	121	121	131	125	129	128	1.3 nM and 0.72 nM						
CCCC(c1cccc(N)c1)c1c(O)c2c(oc1=O)CCCCCC2 (stereo not shown) [Example 376, 3-[1-(3-Aminophenyl)butyl]-5,6,7,8,9,10-hexahydro4-hydroxy-2H-cycloocta[b]pyran-2-one]	10.6	33.7	75.3	96.5	102	103	195 nM						
CCCC(c1cccc(NS(=O)(=O)c2ccc(Cl)cc2)c1)c1c(O)c2c(oc1=O)CCCCCC2 (stereo not shown) [Example 377, Benzenesulfonamide, 4-chloro-N-[3-[1-(5,6,7,8,9,10-hexahydro-4-hydroxy-2-oxo-2H-cycloocta[b]pyran-3-yl)butyl]phenyl]-]	92.9					94.7	4 nM				66.07% and 114.03%	83.74% and 107.37%	101.29
CCCC(c1cccc(NS(=O)(=O)c2ccc(C#N)cc2)c1)c1c(O)c2c(oc1=O)CCCCCC2 (stereo not shown) [Example 378, Benzenesulfonamide, 4-cyano-N-[3-[1-(5,6,7,8,9,10-hexahydro-4-hydroxy-2-oxo-2H-cycloocta[b]pyran-3-yl)butyl]phenyl]-]	103	111	112	118	112	112	1.06 nM						
O=c1oc2c(c(O)c1C(c1cccs1)C1CC1)CCCCCC2 (stereo not drawn) [Example 379, 3-(α-Cyclopropylthien-2-ylmethyl)-4-hydroxy-5,6,7,8,9,10-hexahydrocycloocta[b]pyran-2-one]		48.6	84.5	96.2	107	113	18.3 nM						
CCC(c1cccs1)c1c(O)c2c(oc1=O)CCCCCC2 (stereo not drawn) [Example 380, 3-(α-Ethylthien-2-ylmethyl)4-hydroxy-5,6,7,8,9,10-hexahydrocycloocta[b]pyran-2-one]		21.5	57.2	82.5	103	108	87.9 nM						
CCC(c1ccc(C)s1)c1c(O)c2c(oc1=O)CCCCCC2 (stereo not shown) [Example 381]		24.1	62.3	80.4	99.8	96.7	39.1 nM						
O=c1oc2c(c(O)c1C(c1ccc(CO)s1)C1CC1)CCCCCC2 (stereo not shown) [Example 384]	12.2	47.4	79.2	92.9	103	102	24.1 nM						
O=c1oc2c(c(O)c1C(c1ccc(CCO)s1)C1CC1)CCCCCC2 (stereo not shown) [Example 385]		48.5	89.5	104	107	107	12.4 nM						
O=C(NCc1ccc(C(c2c(O)c3c(oc2=O)CCCCCC3)C2CC2)o1)OCc1ccccc1 (stereo not drawn) [Example 388, 3-(α-Cyclopropyl (5-(N-carbobenzoxy)aminomethyl)furfur-2-yl)-4-hydroxy-5,6,7,8,9,10-hexahydrocycloocta[b]pyran-2-one]		42.8	76	96.5	98.2	93.7	21.7 nM						
